Reference: article PMC6941952, “A homogeneous bioluminescent immunoassay to probe cellular signaling pathway regulation” (Communications Biology, 2020)
Values joined by “and” are separate entries in the source; they are usually repeats but may differ in a detail not shown here. Identical values can stand only once.

Tests used:
total IκBα = test: NanoBiT cell-based immunoassay, total IκBα in human breast tumor epithelial cells; details: Breast Tumor Cells; for Total IkB Average: background subtracted; for Total IkB Raw data / Total IkB Subtract reagent background: listed as TNF;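 on all read-outs here: TNFα at 50 ng per ml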
Experimental: (§1) All cell lines used are from ATCC. […] Human Primary Mammary Epithelial Cells (#H-6035), Human Breast Tumor Epithelial Cells (#HC-6035), Complete Human Epithelial Cell Medium (#H6621), and Gelatin-Based Coating Solution (#H6950) were purchased from Cell Biologics. The cells were cultured according to the manufacturer’s procedure. All cells were grown at 37 °C in a 5% CO2 humidified incubator and passaged before reaching 80% cell confluency. Prior to each experiment, cells were counted by combining 30 µl of cell suspension with 30 µl of trypan blue. After gentle pipetting up and down to mix the cells and the dye, the cell number was determined using Bio-Rad TC 20 cell counter.
(§2) Prior to NanoBiT Cell-Based Immunoassay, 50,000 cells were seeded in 160 µl of complete growth media per well of a 96-well plate and incubated overnight. The cells were checked under microscope and it was determined that 50,000 cells per well in 96-well plate is under 90% confluency for all cells tested. If necessary, the cell culture media were replaced with serum-free media after the cells were stably adherent on the plate and incubated overnight. To treat cells with activators or inhibitors, medium was changed to 30 µl of medium containing inhibitors. If activation of a specific pathway is needed, the cells were stimulated with 10 µl of medium containing activators. To lyse the cells, 10 µl of lysis buffer containing 0.1% digitonin diluted in 1X immunoassay buffer with protease and phosphatase inhibitors was added and the plates were mixed vigorously for 20 min. Then, 50 µl of an antibody mix containing two primary antibodies against the target protein and NanoBiT detecting antibodies (0.3 µl each per well), diluted in 1X immunoassay buffer was added to the lysates. The plates were incubated at 23 °C for 90 min, followed by the addition of 25 µl of Nano-Glo® reagent consisting of Nano-Glo® Luciferase Assay Substrate mixed with 1X immunoassay buffer. Luminescence was measured using a plate-reading luminometer.
(§3) Single dose or dose response inhibitor treatments were performed prior to activation of the pathways as follows. For IκBα, the cells were treated in 30 µl medium with IKK16 or MG132 for 60 min before the addition of 10 µl of DMEM containing appropriate concentration of TNFα. To measure phosphorylation of AKT or STAT3, the corresponding NanoBiT immunoassays were developed with MCF-7 or A431 cells, respectively, according the same scheme used to develop the IκBα assay using the primary antibodies for AKT and STAT3 described in the reagents section. For the AKT assay, MCF-7 cells were incubated overnight in phenol-red free DMEM medium (Gibco #21063-029) without serum. Treatment with LY294002 was performed in 30 µl medium and cells were incubated for 60 min before the addition of 1 µM Insulin. To measure STAT3 phosphorylation, A431 cells were incubated overnight in DMEM medium without serum. […] After addition of the stimulators, the cells were incubated for additional times as follows. IκBα phosphorylation and degradation analyses required both time courses and single time points as described in figures. […] The NanoBiT immunoassay protocol was followed as described above.
(§4) All 96-well assay plates were read using a GloMax® 96 Microplate Luminometer from Promega. The instrument was set to 0.5 s integration time. In order to obtain net change of signal, the reagent background values (signal from the well containing all reagent except primary antibodies) were subtracted from the sample values. To plot and analyze the data, Microsoft Excel and GraphPad Prism® Software were used. IC50 values were determined by using a nonlinear regression fit to a sigmoidal dose response (variable slope).

phospho-IκBα (Ser32) = test: NanoBiT cell-based immunoassay, phosphorylated IκBα in human primary mammary epithelial cells; details: for P-IkB Average: background subtracted; for P-IkB Raw data / P-IkB Subtract reagent background: listed as TNF
Experimental: as §1, §2, §3, §4

NF-κB p65 Phospho-Ser536 = test: NanoBiT cell-based immunoassay, phosphorylated p65 in MCF-7 cells; design: species or system human; details: substance alone
Experimental: as §2, §3, §4

[1] = single replicates, listed as TNF

Substance: TNFα
- Total IkB Average (total IκBα; TNF 2 min): 21090
- Total IkB Raw data (total IκBα; TNF 2 min): 27000 and 28670 and 28950
- Total IkB Subtract reagent background (total IκBα; TNF 2 min): 21553 and 21833 and 19883
- Total IkB Average (total IκBα; TNF 4 min): 18310
- Total IkB Raw data (total IκBα; TNF 4 min): 25000 and 25490 and 25790
- Total IkB Subtract reagent background (total IκBα; TNF 4 min): 18373 and 18673 and 17883
- Total IkB Average (total IκBα; TNF 6 min): 13990
- Total IkB Raw data (total IκBα; TNF 6 min): 22120 and 20820 and 20380
- Total IkB Subtract reagent background (total IκBα; TNF 6 min): 13703 and 13263 and 15003
- Total IkB Average (total IκBα; TNF 8 min): 8950
- Total IkB Raw data (total IκBα; TNF 8 min): 16890 and 15660 and 15650
- Total IkB Subtract reagent background (total IκBα; TNF 8 min): 8543 and 8533 and 9773
- Total IkB Average (total IκBα; TNF 10 min): 6003
- Total IkB Raw data (total IκBα; TNF 10 min): 13590 and 12910 and 12860
- Total IkB Subtract reagent background (total IκBα; TNF 10 min): 5793 and 5743 and 6473
- Total IkB Average (total IκBα; TNF 12 min): 3767
- Total IkB Raw data (total IκBα; TNF 12 min): 11390 and 10770 and 10490
- Total IkB Subtract reagent background (total IκBα; TNF 12 min): 3653 and 3373 and 4273
- Total IkB Average (total IκBα; TNF 15 min): 2118
- Total IkB Raw data (total IκBα; TNF 15 min): 9632 and 9015 and 9057
- Total IkB Subtract reagent background (total IκBα; TNF 15 min): 1898 and 1940 and 2515
- Total IkB Average (total IκBα; TNF 30 min): 1696
- Total IkB Raw data (total IκBα; TNF 30 min): 8893 and 8691 and 8853
- Total IkB Subtract reagent background (total IκBα; TNF 30 min): 1574 and 1736 and 1776
- Total IkB Average (total IκBα; TNF 45 min): 4853
- Total IkB Raw data (total IκBα; TNF 45 min): 11970 and 11880 and 12060
- Total IkB Subtract reagent background (total IκBα; TNF 45 min): 4763 and 4943 and 4853
- Total IkB Average (total IκBα; TNF 60 min): 8867
- Total IkB Raw data (total IκBα; TNF 60 min): 15500 and 15850 and 16600
- Total IkB Subtract reagent background (total IκBα; TNF 60 min): 8733 and 9483 and 8383
- P-IkB Average (phospho-IκBα (Ser32); TNF 2 min): 5853
- P-IkB Raw data (phospho-IκBα (Ser32); TNF 2 min): 17220 and 16460 and 16920
- P-IkB Subtract reagent background (phospho-IκBα (Ser32); TNF 2 min): 6207 and 5447 and 5907
- P-IkB Average (phospho-IκBα (Ser32); TNF 4 min): 8003
- P-IkB Raw data (phospho-IκBα (Ser32); TNF 4 min): 18510 and 19530 and 19010
- P-IkB Subtract reagent background (phospho-IκBα (Ser32); TNF 4 min): 7497 and 8517
- P-IkB Average (phospho-IκBα (Ser32); TNF 6 min): 13540
- P-IkB Raw data (phospho-IκBα (Ser32); TNF 6 min): 23690 and 24890 and 25080
- P-IkB Subtract reagent background (phospho-IκBα (Ser32); TNF 6 min): 12677 and 13877
- P-IkB Average (phospho-IκBα (Ser32); TNF 8 min): 18690
- P-IkB Raw data (phospho-IκBα (Ser32); TNF 8 min): 28000 and 30000 and 31110
- P-IkB Subtract reagent background (phospho-IκBα (Ser32); TNF 8 min): 16987 and 18987
- P-IkB Average (phospho-IκBα (Ser32); TNF 10 min): 22970
- P-IkB Raw data (phospho-IκBα (Ser32); TNF 10 min): 33480 and 34070 and 34400
- P-IkB Subtract reagent background (phospho-IκBα (Ser32); TNF 10 min): 22467 and 23057
- P-IkB Average (phospho-IκBα (Ser32); TNF 12 min): 25163
- P-IkB Raw data (phospho-IκBα (Ser32); TNF 12 min): 35750 and 35400 and 37380
- P-IkB Subtract reagent background (phospho-IκBα (Ser32); TNF 12 min): 24737 and 24387
- P-IkB Average (phospho-IκBα (Ser32); TNF 15 min): 25267
- P-IkB Raw data (phospho-IκBα (Ser32); TNF 15 min): 35860 and 36040 and 36940
- P-IkB Subtract reagent background (phospho-IκBα (Ser32); TNF 15 min): 24847 and 25027 and 25927
- P-IkB Average (phospho-IκBα (Ser32); TNF 30 min): 18640
- P-IkB Raw data (phospho-IκBα (Ser32); TNF 30 min): 29280 and 29480 and 30200
- P-IkB Subtract reagent background (phospho-IκBα (Ser32); TNF 30 min): 18267 and 18467 and 19187
- P-IkB Average (phospho-IκBα (Ser32); TNF 45 min): 16850
- P-IkB Raw data (phospho-IκBα (Ser32); TNF 45 min): 28120 and 27980 and 27490
- P-IkB Subtract reagent background (phospho-IκBα (Ser32); TNF 45 min): 17107 and 16967 and 16477
- P-IkB Average (phospho-IκBα (Ser32); TNF 60 min): 19710
- P-IkB Raw data (phospho-IκBα (Ser32); TNF 60 min): 31240 and 30980 and 29950
- P-IkB Subtract reagent background (phospho-IκBα (Ser32); TNF 60 min): 20227 and 19967 and 18937
- P-p65, Average (NF-κB p65 Phospho-Ser536; background subtracted, average of replicates): 154463
- P-p65, Raw data (NF-κB p65 Phospho-Ser536; [1]): 167400 and 177100 and 183300
- P-p65, Subtract reagent background (NF-κB p65 Phospho-Ser536; [1]): 145930 and 155630 and 161830
